Data on 14 molecules can be found in patent US20070299062A1 (The Procter & Gamble Company, priority 2006, published 2007).

Where only a bound is given, the exact number is not on record here.

One test addresses MCH-1R (UniProt Q99705). The test is described as follows: MCH-1R competition binding assay. The protocol: In vitro binding and function assays are performed on membranes derived from cells or tissues expressing endogenous MCH1R. Competition binding assays are performed to identify high affinity compounds. Briefly, either radiolabeled or europium labeled MCH with varying concentrations of competitor compound which are incubated with membranes expressing the receptor. Rat brain membrane or cell lines, including but not limited to human Kelly neuroblastoma cells, A-431 epidermoid cells, and rat PC-12 cells are known to express endogenous MCH1R and are used in the assay. Binding is allowed to proceed until equilibrium is reached then bound labeled MCH is separated from free MCH by capturing membranes onto a filter. The filters are washed to remove loosely associated MCH and labeled MCH is quantified. Data is analyzed and IC50 and Ki are calculated to determine compound affinity.

In another test the target is T1, 5-HT2c receptor (Homo sapiens, UniProt P28335).
T1 construct: purchased Perkin-Elmer or Euroscreen (named only as possible suppliers)
T1 sequence (P28335 33-458): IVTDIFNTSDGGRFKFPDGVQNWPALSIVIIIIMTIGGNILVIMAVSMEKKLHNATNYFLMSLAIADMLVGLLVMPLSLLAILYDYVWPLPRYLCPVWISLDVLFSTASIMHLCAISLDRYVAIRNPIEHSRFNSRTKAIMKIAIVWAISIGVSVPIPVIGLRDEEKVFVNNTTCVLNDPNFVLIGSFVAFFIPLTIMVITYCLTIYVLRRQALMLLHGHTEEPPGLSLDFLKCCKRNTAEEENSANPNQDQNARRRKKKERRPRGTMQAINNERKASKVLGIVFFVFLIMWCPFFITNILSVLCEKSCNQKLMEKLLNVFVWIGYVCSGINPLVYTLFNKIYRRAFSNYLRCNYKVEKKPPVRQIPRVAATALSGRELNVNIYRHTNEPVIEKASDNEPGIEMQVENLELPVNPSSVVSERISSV
The test is described as follows: 5-HT2c receptor binding assay (3H-mesulergine competition). Conditions: 1 nM 3H-mesulergine; read-out: Ki (nM) binding data 5-HT2C. The protocol: MCH antagonist compounds are evaluated for binding to the serotonin 5-HT2c receptor to determine receptor selectivity. Binding activity is assessed using a competitive assay with ^3H-mesulergine (Perkin Elmer), a 5-HT2c selective ligand, on membrane containing the 5-HT2c receptor. Briefly, 1 nM ^3H-mesulergine and varying concentrations of the compound are incubated with 5-HT2c receptor membranes, following an incubation period, the membranes are washed and ^3H-mesulergine bound to membranes is measured in a liquid scintillation counter. The amount of bound ^3H-mesulergine at the varying concentration of competitor compound is used to derive the affinity (Ki) of the compound for the 5-HT2c receptor. 5-HT2c receptor containing membranes are readily available from several companies including Perkin-Elmer and Euroscreen.

By Ki is commonly meant the dissociation constant of the complex between target and ligand, obtained from inhibition or displacement. As for `CN(CCS(C)(=O)=O)Cc1ccc2c(c1)CC[C@H](n1cnc3cc(-c4ccc(Cl)cc4)sc3c1=O)C2` [6-(4-Chlorophenyl)-3-((S)-6-{[2-methanesulfonylethyl)methylamino]methyl}-1,2,3,4-tetrahydronapthealen-2-yl)thieno[3,2-d]pyrimidin-4(3H)-one], the Ki on MCH-1R was 15.8 nM; on 5-HT2c receptor, > 100000 nM.
With `CS(=O)(=O)N1CCN(Cc2ccc3c(c2)CC[C@H](n2cnc4cc(-c5ccc(Cl)cc5Cl)sc4c2=O)C3)CC1`, the Ki is 107 nM on MCH-1R and > 100000 nM at 5-HT2c receptor.
Taken in the same sequence, the figures for `CC(=O)N1CCN(Cc2ccc3c(c2)CC[C@H](n2cnc4cc(-c5ccc(F)c(F)c5)sc4c2=O)C3)CC1` [(S)-3-[6-(4-Acetylpiperazin-1-ymethyl)-1,2,3,4-tetrahydronapthalen-2-yl]-6-(3,4-difluorophenyl)thieno[3,2-d]pyrimidin-4(3H)-one] were 36.6 nM and > 100000 nM.
Taken in the same sequence, the figures for `CC(=O)N1CCN(Cc2ccc3c(c2)CC[C@H](n2cnc4cc(-c5ccc(C)cc5)sc4c2=O)C3)CC1` [(S)-3-[6-(4-Acetylpiperazin-1-ymethyl)-1,2,3,4-tetrahydronapthalen-2-yl]-6-(4-methylphenyl)thieno[3,2-d]pyrimidin-4(3H)-one] were 16.1 nM and 5460 nM.
Taken in the same sequence, the figures for `CS(=O)(=O)N1CCN(Cc2ccc3c(c2)CC[C@H](n2cnc4cc(-c5cccnc5)sc4c2=O)C3)CC1` were 752 nM and > 100000 nM.
In the case of `CC(=O)N1CCN(Cc2ccc3c(c2)CC[C@H](n2cnc4cc(-c5cncc(F)c5)sc4c2=O)C3)CC1` [(S)-3-[6-(4-Acetylpiperazin-1-ymethyl)-1,2,3,4-tetrahydronapthalen-2-yl]-6-(5-fluoropyridin-3-yl)thieno[3,2-d]pyrimidin-4(3H)-one], the values for the Ki on MCH-1R and on 5-HT2c receptor were 97 nM and > 100000 nM, respectively.
Take `CC(=O)N1CCN(Cc2ccc3c(c2)CC[C@H](n2cnc4cc(-c5ccc(Cl)cc5Cl)sc4c2=O)C3)CC1` [(S)-3-[6-(4-Acetylpiperazin-1-ymethyl)-1,2,3,4-tetrahydronapthalen-2-yl]-6-(2,4dichlorophenyl)thieno[3,2-d]pyrimidin-4(3H)-one]: the Ki stood at 24.7 nM at MCH-1R and 2370 nM at 5-HT2c receptor.
Turning to `CS(=O)(=O)N1CCN(Cc2ccc3c(c2)CC[C@H](n2cnc4cc(-c5ccc(Cl)cc5)sc4c2=O)C3)CC1` [(S)-6-(4-Chlorophenyl)-3-(6-((4-methylsulfonyl)piperazin-1-yl)methyl)-1,2,3,4-tetrahydronapthalen-2-yl)thieno[3,2,-d]pyrimidin-4(3H)-one], the Ki on MCH-1R is 65 nM; on 5-HT2c receptor, > 100000 nM.
With `CS(=O)(=O)N1CCN(Cc2ccc3c(c2)CC[C@H](n2cnc4cc(-c5ccsc5)sc4c2=O)C3)CC1`, the results for the Ki on MCH-1R and at 5-HT2c receptor were 60 nM and > 100000 nM, respectively.
In the same order, the values of `CC(=O)N1CCN(Cc2ccc3c(c2)CC[C@H](n2cnc4cc(-c5cccnc5F)sc4c2=O)C3)CC1` [(S)-3-[6-(4-Acetylpiperazin-1-ymethyl)-1,2,3,4-tetrahydronapthalen-2-yl]-6-(2-fluoropyridin-3-yl)thieno[3,2-d]pyrimidin-4(3H)-one] are 813 nM and > 100000 nM.
In the same order, the values of `CN1CCN(C2CCN(Cc3ccc4c(c3)CC[C@H](n3cnc5cc(-c6ccc(Cl)cc6)sc5c3=O)C4)CC2)CC1` [(S)-6-(4-Chlorophenyl)-3-(6-{[4-(4-methylpiperazin-1-yl)piperidin-1-yl]methyl}-1,2,3,4-tetrahydronapthalen-2-yl)thieno[3,2-d]pyrimidin-4(3H)-one] are 42 nM and 4790 nM.
As to `CC(=O)N1CCN(Cc2ccc3c(c2)CC[C@H](n2cnc4cc(-c5ccc(Cl)cc5)sc4c2=O)C3)CC1` [(S)-3-(6-((4-Acetylpiperazin-1-yl)methyl)-1,2,3,4-tetrahydronapthalen-2-yl)-6-(4-chlorophenyl)thieno[3,2-d]pyrimidine-4(3H)-one], the Ki at MCH-1R was 35 nM; at 5-HT2c receptor, 14600 nM.
In the same order, the values of `CC(=O)N1CCN(Cc2ccc3c(c2)CC[C@H](n2cnc4cc(-c5cccc(Cl)c5)sc4c2=O)C3)CC1` [(S)-3-[6-(4-Acetylpiperazin-l-ymethyl)-1,2,3,4-tetrahydronapthalen-2-yl]-6-(3-chlorophenyl)thieno[3,2-d]pyrimidin-4(3H)-one] are 70.5 nM and > 100000 nM.
With `CC(=O)N1CCN(Cc2ccc3c(c2)CC[C@H](n2cnc4cc(-c5ccc(C#N)cc5)sc4c2=O)C3)CC1` [(S)-4-(3-(6-((4-acetylpiperazin-1-yl)methyl)-1,2,3,4-tetrahy] [(S)-4-(3-(6-((4-acetylpiperazin-1-yl)methyl)-1,2,3,4-tetrahydronaphthalen-2-yl)-4-oxo-3,4-dihydrothieno[3,2-d]pyrimidin-6-yl)benzonitrile], the Ki on MCH-1R is 397 nM; on 5-HT2c receptor, > 100000 nM.
